From article PMC6017732, “Identification and Characterizations of Novel, Selective Histone Methyltransferase SET7 Inhibitors by Scaffold Hopping- and 2D-Molecular Fingerprint-Based Similarity Search” (Molecules : A Journal of Synthetic Chemistry and Natural …, 2018)
Where two headings read alike, the source gives them in different places.

What was measured:
[1] = target: T1, SET7 (Homo sapiens, UniProt Q8WTS6); experiment: 3H-labeled radioisotope methylation assay; format: biochemical; conditions: 3H radioactive methylation assay
T1 sequence (Q8WTS6 1-366): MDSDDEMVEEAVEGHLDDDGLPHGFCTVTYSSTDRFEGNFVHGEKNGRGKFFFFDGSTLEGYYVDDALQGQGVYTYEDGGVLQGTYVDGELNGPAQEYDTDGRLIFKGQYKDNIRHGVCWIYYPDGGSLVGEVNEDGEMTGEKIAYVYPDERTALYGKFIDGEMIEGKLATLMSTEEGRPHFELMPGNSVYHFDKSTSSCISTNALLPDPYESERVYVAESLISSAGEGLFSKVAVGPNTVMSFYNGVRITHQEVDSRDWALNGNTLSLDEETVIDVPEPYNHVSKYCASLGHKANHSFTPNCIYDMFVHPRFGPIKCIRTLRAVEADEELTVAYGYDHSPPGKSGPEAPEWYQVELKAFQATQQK
Description: As for ^3Hradioactive methylation assay, SAH was used as the reference compound and the compounds were tested in 10 concentrations in duplicate in modified Tris buffer (1× assay buffer). The following materials were purchased: SET7 (Enzo, Cat. No. ALX-201-178, New York, NY, USA), [^3H]-SAM (PerkinElmer Inc., Lot. No. 1790854), SAH (Sigma, Cat. No. A9384-25MG, St. Louis, MO, USA) and 384-well Flashplate (Perkin Elmer, Cat. No. SMP410A001PK,). The compounds were transferred to the assay plate by Echo 550 with 3-fold dilution in 100% DMSO where the final DMSO concentration is 1%. Then the enzyme solution was transferred to the assay plate and 1× assay buffer was transferred for low control. After 15 min incubation at room temperature, peptide and [^3H]-SAM mix solution was transferred to each well to start the reaction. The cold SAM in 1× buffer was added to each well to stop the reaction after 60 min incubation at room temperature. 25 μL of the whole reaction system per well was transferred to Flashplate which was washed with dH2O and 0.1% Tween-20 for three times after 60 min incubation. The data was read on Microbeta. All the inhibition assays are performed in duplicate.

[2] = target: T1, SET7; experiment: AlphaLISA SET7 inhibition assay; format: biochemical; conditions: for IC50: SET7; for inhibition at 100 µM: read-out: Inhibition Ratio at 100 μM/%
Description: AlphaLISA assays were applied to determine the inhibitory activity targeting SET7. The purified SET7 protein was incubated in modified Tris buffer in 384-well plates (Perkin Elmer, Cat. No. 6007299, Waltham, MA, USA) at room temperature for 15 min. The compounds were transferred to the assay plate using Echo in 100% DMSO, and substrate solution was added to each well to start the reaction. Acceptor and donor beads were added and incubated for 60 min at room temperature, shielded from light. The endpoint was evaluated with EndSpire in Alpha mode. The experimental data was fitted in GraphPad Prism 5 to obtain inhibition values using the equation as follows:(1) Inhibition %= Max−Siginal/Max−Min×100%

[3] = tested on: Jurkat leukemia cell line; experiment: Cell viability assay (alamarBlue / MTT), Jurkat; format: cell-based; conditions: Homo sapiens, 72 h, approximately 72 h
Description: (§1) MCF7, HL60, MV4-11, K562, Kasumi-1, U937, THP1, and Jurkat cell lines were purchased from American Type Culture Collection (Manassas, VA, USA). Fetal bovine serum was purchased from Life Technologies. MCF7 cells were cultured in DMEM medium supplemented with 10% fetal bovine serum at 37 °C in an incubator with 5% CO2 atmosphere. HL60 and MV4-11 cells were cultured in 1640 medium supplemented with 10% fetal bovine serum. K562, Kasumi-1 and HL60 were cultured in 96 plate at 10,000/well for 2 h. DC-S285 was dissolved in DMSO (Sigma) and then stored at 4 °C. The cells were incubated with DC-S285 at different concentrations ranging from 0 to 100 µM for approximately 72 h. The activities of […] against MCF7, HL60, MV4-11, K562, Kasumi-1, U937, THP1, and Jurkat were measured by the alamarBlue assays and MTT assays.

[4] = target: T2, SET7 (Homo sapiens, UniProt Q8WTS6); experiment: Ligand observed T1rho (CPMG) NMR experiment; format: binding; conditions: 20 μM compound, 2.5 μM SET7
T2 sequence (Q8WTS6 117-366 limits assumed): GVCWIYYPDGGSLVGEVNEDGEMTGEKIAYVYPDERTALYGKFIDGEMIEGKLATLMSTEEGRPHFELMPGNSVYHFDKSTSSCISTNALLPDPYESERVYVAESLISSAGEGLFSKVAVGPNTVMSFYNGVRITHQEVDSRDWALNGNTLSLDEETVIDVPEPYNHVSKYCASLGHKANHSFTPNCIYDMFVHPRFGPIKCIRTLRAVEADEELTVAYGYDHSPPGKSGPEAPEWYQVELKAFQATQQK
Description: Ligand observed T1ρ NMR experiment were applied to investigate ligand-protein interactions. All NMR spectra were acquired at 25 °C on a 600 MHz Bruker Avance III spectrometer equipped with a cryogenically cooled probe (Bruker Biospin, Ettlingen, Germany). Samples containing 20 μM DC-S285, and 20 μM DC-S285 in the presence of 2.5 μM SET7 were dissolved in Tris-HCl buffer (50 mM Tris-HCl, 100 mM NaCl, pH 7.4, 5% DMSO, 95% D2O) and then used in NMR data acquisition. T1ρ spectra were recorded by using the pulse sequence of solvent-suppressed ^1D ^1H CPMG (cpmgPr1d). The 90° pulse length was adjusted to about 11.80 μs. A total of four dummy scans and 64 free induction decays (FIDs) were collected into 64 K acquisition points, covering a spectral width of 12 kHz (20 ppm) and giving an acquisition time (ACQ) of 2.73 s. STD data was acquired using 4 dummy scans and a relaxation delay of 3 s, followed by a 40 dB pulsed irradiation at frequency of −1.0 ppm or 33 ppm alternatively. The total acquisition time for STD spectrum was 23 min with 128 FIDs.

[5] = tested on: U937 leukemia cell line; experiment: Cell viability assay (alamarBlue / MTT), U937; format: cell-based; conditions: Homo sapiens, U-937, 72 h, U937, approximately 72 h
Description: as §1

[6] = tested on: THP1 leukemia cell line; experiment: Cell viability assay (alamarBlue / MTT), THP1; format: cell-based; conditions: Homo sapiens, THP-1, 72 h, THP1, approximately 72 h
Description: as §1

[7] = tested on: MCF7 (breast cancer) cells; experiment: Cell viability assay (alamarBlue / MTT), MCF7; format: cell-based; conditions: Homo sapiens, MCF7, 72 h, MCF7, approximately 72 h
Description: as §1

[8] = target: T3, SMYD2 (Homo sapiens, UniProt Q9NRG4); experiment: Enzymatic selectivity assay SMYD2 (Alpha mode); format: biochemical; conditions: SMYD2, 100 μM; read-out: Inhibition Ratio at 100 μM/%
T3 construct: purchased Active Motif 31323
Description: (§2) For SETD1B, G9a and SMYD2, the activities against those targets were tested in modified Tris buffer (1× assay buffer). All the solid compounds were dissolved to 20 mM in 100% DMSO. The materials used were SETD1B (Active Motif, Cat. No. M1083, Carlsbad, CA, USA), G9a (BPS, Cat. No. 51001, San Diego, CA, USA), […] and 384-well plate (Perkin Elmer, Cat. No. 6007299). Both the enzyme solution and the substrate solution were prepared in 1× assay buffer enzyme solution or 1× assay buffer for low control was transferred to the assay plate. Then substrate mix solution was added to each well to start the solution for 15 min incubation at room temperature. For SETD1B, G9a, the incubation time was adjusted to 60 min and for SMYD2, the incubation time was set to 240 min. For detection, acceptor and donor beads were added and incubated for 60 min at room temperature, shielded from light. The endpoint was evaluated with EnSpire in Alpha mode.

[9] = target: T4, G9a (Homo sapiens, UniProt Q96KQ7); experiment: Enzymatic selectivity assay G9a (Alpha mode); format: biochemical; conditions: read-out: Inhibition Ratio at 100 μM/%
T4 construct: purchased BPS 51001
T4 sequence (Q96KQ7 785-1210 limits assumed): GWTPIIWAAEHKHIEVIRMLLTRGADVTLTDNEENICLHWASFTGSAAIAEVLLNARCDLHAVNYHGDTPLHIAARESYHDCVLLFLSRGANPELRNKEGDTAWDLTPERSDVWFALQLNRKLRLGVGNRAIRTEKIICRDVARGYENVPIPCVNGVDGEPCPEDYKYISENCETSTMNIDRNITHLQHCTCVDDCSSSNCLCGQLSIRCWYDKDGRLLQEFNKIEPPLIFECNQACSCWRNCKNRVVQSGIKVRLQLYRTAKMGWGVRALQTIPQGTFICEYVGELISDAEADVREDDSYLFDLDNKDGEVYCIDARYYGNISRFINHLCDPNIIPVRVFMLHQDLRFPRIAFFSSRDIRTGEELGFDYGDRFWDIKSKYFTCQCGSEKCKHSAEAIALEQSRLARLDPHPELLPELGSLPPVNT
Description: as §2

[10] = target: EZH2 (Homo sapiens, UniProt Q15910); experiment: Radioactive methylation inhibition assay of EZH2; format: biochemical; conditions: EZH2, 100 μM
Description: The radioactive methylation inhibition assay of EZH2 was performed in modified Tris buffer. H3K27me peptide and [^3H]-SAM (Perkin Elmer Inc. Waltham, MA, USA, Lot. No. 1731619) were added in 1x buffer as the substrate solution. The […] solution was incubated at room temperature for 15 min before substrate solution was added to each well to start the reaction. Cold SAM (Sigma, Cat. NO. 7007) was added in 1× buffer to prepare stop mix (final concentration 0.5 mM), and was added to stop the reaction; finally 25 μL of the reaction system was transferred to a FlashPlate (Perkin Elmer, Cat. No. SMP410A001PK) and incubated at room temperature for a minimum of 1 h. The plate was washed three times with dH2O and 0.1% Tween-20, and the radioactivity was determined by liquid scintillation counting (MicroBeta). GSK-126 was used as the reference compound.

[11] = target: T5, SETD1B (Homo sapiens, UniProt Q9UPS6); experiment: Enzymatic selectivity assay SETD1B (Alpha mode); format: biochemical; conditions: read-out: Inhibition Ratio at 100 μM/%
T5 construct: purchased Active Motif M1083
Description: as §2

[12] = target: T6, SETD8 (Homo sapiens, UniProt Q9NQR1); experiment: Radioactive methylation inhibition assay of SETD8; format: biochemical; conditions: SETD8, 100 μM; read-out: Inhibition Ratio at 100 μM/%
T6 sequence (Q9NQR1 1-393): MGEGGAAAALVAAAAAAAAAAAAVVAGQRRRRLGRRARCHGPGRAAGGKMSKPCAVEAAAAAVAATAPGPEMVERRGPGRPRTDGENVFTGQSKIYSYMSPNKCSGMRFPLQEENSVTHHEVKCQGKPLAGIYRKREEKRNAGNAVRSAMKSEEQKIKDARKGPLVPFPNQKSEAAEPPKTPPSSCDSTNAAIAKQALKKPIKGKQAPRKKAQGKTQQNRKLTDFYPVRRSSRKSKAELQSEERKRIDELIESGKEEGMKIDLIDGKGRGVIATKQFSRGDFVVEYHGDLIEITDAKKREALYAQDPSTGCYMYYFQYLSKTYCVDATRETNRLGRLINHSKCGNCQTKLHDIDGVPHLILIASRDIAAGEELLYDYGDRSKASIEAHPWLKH
Description: The radioactive methylation inhibition assay of SETD8 was performed in modified Tris buffer. […] and [^3H]-SAM (PerkinElmer, Cat No. NET1551MC) were added in 1x buffer as the substrate solution. The enzyme solution was incubated at room temperature for 15 min before substrate solution was added to each well to start the reaction. Cold SAM (Sigma, Cat. No. 7007-100MG) was added in 1x buffer to prepare the stop mix, and was added to stop the reaction; finally 10 μL of the reaction system was transferred to flashplate (PerkinElmer Inc., Cat. No. SMP410A001PK) and incubated at room temperature for a minimum of 2 h. The plate was washed three times with dH2O and 0.1% Tween-20, and the radioactivity signal was detected by liquid scintillation counting (MicroBeta, PerkinElmer). SAH was used as the reference compound.

T3 sequence (Q9NRG4 whole entry): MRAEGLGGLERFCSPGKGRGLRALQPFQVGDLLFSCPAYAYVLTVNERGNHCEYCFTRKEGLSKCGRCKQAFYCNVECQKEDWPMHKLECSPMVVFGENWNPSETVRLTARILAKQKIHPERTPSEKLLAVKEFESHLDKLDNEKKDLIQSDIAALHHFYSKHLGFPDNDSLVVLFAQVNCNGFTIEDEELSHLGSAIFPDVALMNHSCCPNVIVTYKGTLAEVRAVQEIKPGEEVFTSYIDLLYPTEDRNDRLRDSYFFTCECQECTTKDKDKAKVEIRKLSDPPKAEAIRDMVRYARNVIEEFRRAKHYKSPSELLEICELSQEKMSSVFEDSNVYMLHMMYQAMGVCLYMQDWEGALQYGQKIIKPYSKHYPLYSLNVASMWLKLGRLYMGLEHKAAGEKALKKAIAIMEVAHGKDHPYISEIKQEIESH
EZH2, sequence (Q15910 whole entry, species assumed): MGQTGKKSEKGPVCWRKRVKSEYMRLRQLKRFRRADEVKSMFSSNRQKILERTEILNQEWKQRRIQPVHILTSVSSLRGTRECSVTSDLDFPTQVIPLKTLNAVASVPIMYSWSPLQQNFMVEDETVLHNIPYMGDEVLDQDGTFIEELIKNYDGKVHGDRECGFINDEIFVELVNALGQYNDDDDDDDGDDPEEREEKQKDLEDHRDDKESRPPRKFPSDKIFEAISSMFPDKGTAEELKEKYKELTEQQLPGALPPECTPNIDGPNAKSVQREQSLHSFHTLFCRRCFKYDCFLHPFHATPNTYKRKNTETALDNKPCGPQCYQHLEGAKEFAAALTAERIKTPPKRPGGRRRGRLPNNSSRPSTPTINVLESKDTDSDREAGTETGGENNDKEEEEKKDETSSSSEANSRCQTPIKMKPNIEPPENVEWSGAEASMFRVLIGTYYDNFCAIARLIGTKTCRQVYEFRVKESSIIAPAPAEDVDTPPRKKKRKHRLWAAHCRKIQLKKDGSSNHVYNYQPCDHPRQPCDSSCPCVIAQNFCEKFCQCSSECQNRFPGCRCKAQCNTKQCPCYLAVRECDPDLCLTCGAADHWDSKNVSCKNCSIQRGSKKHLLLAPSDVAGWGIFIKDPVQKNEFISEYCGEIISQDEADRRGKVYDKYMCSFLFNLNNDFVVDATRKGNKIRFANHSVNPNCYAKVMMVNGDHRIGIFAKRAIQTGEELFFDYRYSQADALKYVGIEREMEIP
EZH2, sequence (O75530 whole entry partner, species assumed): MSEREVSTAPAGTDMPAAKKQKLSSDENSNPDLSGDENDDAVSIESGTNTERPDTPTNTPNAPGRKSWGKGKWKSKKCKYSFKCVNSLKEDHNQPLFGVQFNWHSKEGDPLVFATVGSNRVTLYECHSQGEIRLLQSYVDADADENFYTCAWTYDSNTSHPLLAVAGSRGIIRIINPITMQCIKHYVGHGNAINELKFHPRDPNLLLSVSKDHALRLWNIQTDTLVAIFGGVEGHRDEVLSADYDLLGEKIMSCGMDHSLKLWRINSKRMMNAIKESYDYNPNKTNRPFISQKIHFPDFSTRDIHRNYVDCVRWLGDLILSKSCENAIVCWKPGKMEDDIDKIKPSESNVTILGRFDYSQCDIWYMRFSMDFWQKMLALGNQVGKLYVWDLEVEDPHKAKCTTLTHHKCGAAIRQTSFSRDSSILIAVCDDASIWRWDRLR
EZH2, sequence (Q15022 whole entry partner, species assumed): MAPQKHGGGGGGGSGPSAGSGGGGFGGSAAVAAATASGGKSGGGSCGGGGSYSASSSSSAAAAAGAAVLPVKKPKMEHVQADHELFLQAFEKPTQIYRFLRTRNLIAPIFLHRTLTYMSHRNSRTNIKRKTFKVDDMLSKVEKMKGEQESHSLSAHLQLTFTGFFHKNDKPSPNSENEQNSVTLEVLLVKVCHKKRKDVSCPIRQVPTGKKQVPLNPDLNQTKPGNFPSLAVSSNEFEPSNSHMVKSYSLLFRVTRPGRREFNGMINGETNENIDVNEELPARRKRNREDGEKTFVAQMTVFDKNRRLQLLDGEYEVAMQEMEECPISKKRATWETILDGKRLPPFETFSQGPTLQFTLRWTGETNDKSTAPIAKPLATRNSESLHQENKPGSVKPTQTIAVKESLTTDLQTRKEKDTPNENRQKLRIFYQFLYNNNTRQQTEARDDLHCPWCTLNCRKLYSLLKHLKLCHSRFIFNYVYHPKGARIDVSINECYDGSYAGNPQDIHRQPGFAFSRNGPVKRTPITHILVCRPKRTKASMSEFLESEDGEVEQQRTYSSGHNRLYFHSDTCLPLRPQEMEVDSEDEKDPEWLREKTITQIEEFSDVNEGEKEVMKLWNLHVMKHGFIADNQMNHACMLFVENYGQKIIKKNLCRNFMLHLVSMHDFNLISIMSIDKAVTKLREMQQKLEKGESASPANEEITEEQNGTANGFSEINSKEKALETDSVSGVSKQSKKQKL

Row | IC50 [1] | IC50 ([2]; AlphaLISA assay) | IC50 [3] | binding to SET7 in T1ρ (CPMG) NMR [4] | IC50 [5] | IC50 [6] | IC50 [7] | inhibition at 100 µM ([2]; AlphaLISA assay, SET7, 100 μM) | inhibition at 100 µM ([2]; SETD7, 100 μM, selectivity panel (Table 3)) | inhibition at 100 µM [8] | inhibition at 100 µM [9] | Inhibition Ratio at 100 μM/% [10] | inhibition at 100 µM [11] | inhibition at 100 µM [12] | Structure (SMILES)
1 | 19.5 µM | 9.3 µM | 2.2 µM | Strong binding signals | 3.9 µM | 3.5 µM | 21.4 µM | – | – | – | – | – | – | – | COc1ccc(C(=O)N/N=C/c2ccc([N+](=O)[O-])cc2)cc1Br [DC-S285]
2 | 2.9 µM | 1.1 µM | – | – | – | – | – | 99% | 90.5% | 24.6% | 52.6% | 47.88% | 27.1% | 55.2% | O=C(N/N=C/c1cc([N+](=O)[O-])ccc1Cl)c1ccc(-c2ccccc2)cc1 [DC-S303]
